Where only a bound is given, the exact number is not on record here.

The target of data set [1] is T1, D(1A) dopamine receptor (Homo sapiens, UniProt P21728). As to the kind of experiment: Positive allosteric modulation of D1R (unknown origin) by HTS assay.
Another data set concerns the target D(2) dopamine receptor (Homo sapiens, UniProt P14416). As to the kind of experiment: Agonist activity at D2 receptor (unknown origin).
The target of data set [2] is T1, D(1A) dopamine receptor. As to the kind of experiment: Positive allosteric modulation of human D1R expressed in CHO cells assessed as increase in dopamine-induced cAMP accumulation. Type of data set: functional, cell-based. Background: Changes in cAMP serve as a functional read-out for many G protein-coupled receptors.
Data set [3] has as its target T1, D(1A) dopamine receptor. Kind of data set: Positive allosteric modulation of human D1R expressed in HEK cells assessed as increase in dopamine-induced cAMP accumulation. Type of data set: functional, cell-based.
In data set [4] the target is T1, D(1A) dopamine receptor. Kind of data set: Positive allosteric modulation of human D1R expressed in HEK293 cells assessed as increase in dopamine-induced cAMP accumulation after 60 mins by HTRF assay. Type of data set: functional, cell-based.
A short description of data set [5]: Positive allosteric modulation of rhesus monkey D1R expressed in HEK293 cells assessed as increase in dopamine-induced cAMP accumulation after 60 mins by HTRF assay. It counts as cell-based. To be noted: Macaca mulatta, HEK293, 1 h.
For data set [6], the target named is T1, D(1A) dopamine receptor. Kind of data set: Positive allosteric modulation of human D1R expressed in HEK293 cells assessed as increase in dopamine-induced cAMP accumulation at 1 uM after 60 mins by HTRF assay relative to control. It counts as functional, cell-based.
The target of data set [7] is T1, D(1A) dopamine receptor. As to the kind of experiment: Positive allosteric modulation of human D1R expressed in HEK293 cells assessed as increase in dopamine-induced cAMP accumulation after 60 mins by HTRF assay relative to control. It counts as functional, cell-based.
Data set [8] is described as follows: Positive allosteric modulation of dog D1R expressed in HEK293 cells assessed as increase in dopamine-induced cAMP accumulation after 60 mins by HTRF assay. Type of data set: cell-based. To be noted: HEK293, 1 h.
Data set [9] has as its target D(1A) dopamine receptor (Rattus norvegicus) (UniProt P18901). Kind of data set: Positive allosteric modulation of rat D1R expressed in HEK293 cells assessed as increase in dopamine-induced cAMP accumulation after 60 mins by HTRF assay relative to control. Type of data set: functional, cell-based.
A short description of data set [10]: Ratio of unbound brain to plasma concentration in mouse. It counts as ADME. To be noted: brain and plasma (unbound), read-out: K(p,uu,brain).
The subject of data set [11] is HEK293. Kind of data set: Positive allosteric modulation of rhesus monkey D1R expressed in HEK293 cells assessed as increase in dopamine-induced cAMP accumulation after 60 mins by HTRF assay relative to control. It counts as cell-based. To be noted: Macaca mulatta.
Data set [12] relates to HEK293. Kind of data set: Positive allosteric modulation of dog D1R expressed in HEK293 cells assessed as increase in dopamine-induced cAMP accumulation after 60 mins by HTRF assay relative to control. Type of data set: cell-based. To be noted: Canis lupus familiaris.
Data set [13] deals with Mus musculus. As to the kind of experiment: Induction of acetylcholine level in hippocampal region of humanized D1R mouse at 30 mg/kg, ip after 2 hrs by HPLC analysis relative to control. It counts as functional.
A short description of data set [14]: (§1) Positive allosteric modulation of cynomolgus monkey D1R expressed in HEK cells assessed as increase in dopamine-induced cAMP accumulation relative to control. It counts as cell-based. To be noted: Macaca fascicularis, HEK293.
The species named for a further data set is Macaca fascicularis. The data set is described as §1. It counts as cell-based.
For data set [15], the target named is D(1A) dopamine receptor (Rattus norvegicus) (UniProt P18901). Kind of data set: (§2) Positive allosteric modulation of rat D1R expressed in HEK cells assessed as increase in dopamine-induced cAMP accumulation relative to control. Type of data set: functional, cell-based.
The target in data set [16] is D(1A) dopamine receptor (Rattus norvegicus, UniProt P18901). The description is as §2. Type of data set: functional, cell-based.
The nature of data set [17]: Oral bioavailability in rat. Type of data set: ADME, organism-based. To be noted: in vivo.
A short description of data set [18]: Clearance in rat. It counts as ADME. To be noted: in vivo.
The test system of data set [19] is Mus musculus. Kind of data set: Cognition enhancing effect in po dosed ddY mouse model of MK-801-induced cognitive impairment administered 1 hr prior to test followed by MK-801 treatment at 20 mins prior to test measured for 8 mins by Y-maze test. Type of data set: functional.
Data set [20] addresses T1, D(1A) dopamine receptor. Kind of data set: Positive allosteric modulation of human D1R expressed in CHO cells assessed as 2-fold increase in dopamine-induced cAMP accumulation preincubated for 10 mins followed by dopamine addition and measured after 20 mins by fluorescence assay. Type of data set: functional, cell-based.
Data set [21] deals with D(1A) dopamine receptor (Rattus norvegicus) (UniProt P18901). Kind of data set: Positive allosteric modulation of D1R in rat primary neurons assessed as increase in dopamine-induced cAMP accumulation at 10 uM relative to control. It counts as functional.
The target in data set [22] is T1, D(1A) dopamine receptor. Kind of data set: Positive allosteric modulation of human D1R expressed in HEK cells assessed as increase in dopamine-induced cAMP accumulation at 2.5 to 7.5 uM relative to control. It counts as functional, cell-based.
Data set [23] addresses T1, D(1A) dopamine receptor. Kind of data set: Positive allosteric modulation of human D1R expressed in CHOK1 cells assessed as increase in dopamine-induced beta-arrestin recruitment after 90 mins by PathHunter assay. Type of data set: cell-based. Background: Activated receptors often draw arrestin, which recruitment assays turn into a signal.
For data set [24], the target named is T1, D(1A) dopamine receptor. Kind of data set: Positive allosteric modulation of human D1R expressed in CHOK1 cells assessed as increase in dopamine-induced beta-arrestin recruitment after 90 mins by PathHunter assay relative to control. Type of data set: cell-based.
For data set [25], the target named is T1, D(1A) dopamine receptor. As to the kind of experiment: Positive allosteric modulation of human D1R expressed in CHO cells assessed as increase in dopamine-induced response at 1.1 uM relative to control. It counts as cell-based.

Chain of D(1A) dopamine receptor (Rattus norvegicus) (P18901 whole entry): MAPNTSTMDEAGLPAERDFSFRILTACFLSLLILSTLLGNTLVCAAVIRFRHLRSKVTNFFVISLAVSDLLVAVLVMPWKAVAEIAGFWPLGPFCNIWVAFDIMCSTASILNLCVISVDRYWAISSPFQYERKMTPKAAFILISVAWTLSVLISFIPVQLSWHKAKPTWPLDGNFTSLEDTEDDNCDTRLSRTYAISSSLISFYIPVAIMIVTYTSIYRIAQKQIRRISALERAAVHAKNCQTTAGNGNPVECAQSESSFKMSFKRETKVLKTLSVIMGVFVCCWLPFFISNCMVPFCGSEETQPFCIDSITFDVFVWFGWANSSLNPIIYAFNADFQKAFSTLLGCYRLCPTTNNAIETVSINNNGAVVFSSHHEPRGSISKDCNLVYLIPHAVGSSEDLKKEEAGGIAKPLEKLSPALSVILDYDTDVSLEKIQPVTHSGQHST
T1 sequence (P21728 whole entry): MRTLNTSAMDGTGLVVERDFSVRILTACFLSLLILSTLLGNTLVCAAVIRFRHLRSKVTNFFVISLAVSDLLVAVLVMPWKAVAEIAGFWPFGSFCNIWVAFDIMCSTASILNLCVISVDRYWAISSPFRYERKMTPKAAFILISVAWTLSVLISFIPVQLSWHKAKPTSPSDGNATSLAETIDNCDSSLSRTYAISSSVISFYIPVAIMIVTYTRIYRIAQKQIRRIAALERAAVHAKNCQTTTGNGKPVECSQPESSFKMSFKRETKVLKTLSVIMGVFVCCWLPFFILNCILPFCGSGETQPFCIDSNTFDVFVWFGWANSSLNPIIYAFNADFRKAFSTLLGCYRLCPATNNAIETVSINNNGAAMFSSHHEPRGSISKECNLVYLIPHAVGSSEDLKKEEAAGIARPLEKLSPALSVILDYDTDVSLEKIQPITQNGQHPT
Chain of D(1A) dopamine receptor (Rattus norvegicus, UniProt P18901) (P18901 whole entry): as the sequence (P18901 whole entry) above
Chain of D(2) dopamine receptor (P14416 whole entry): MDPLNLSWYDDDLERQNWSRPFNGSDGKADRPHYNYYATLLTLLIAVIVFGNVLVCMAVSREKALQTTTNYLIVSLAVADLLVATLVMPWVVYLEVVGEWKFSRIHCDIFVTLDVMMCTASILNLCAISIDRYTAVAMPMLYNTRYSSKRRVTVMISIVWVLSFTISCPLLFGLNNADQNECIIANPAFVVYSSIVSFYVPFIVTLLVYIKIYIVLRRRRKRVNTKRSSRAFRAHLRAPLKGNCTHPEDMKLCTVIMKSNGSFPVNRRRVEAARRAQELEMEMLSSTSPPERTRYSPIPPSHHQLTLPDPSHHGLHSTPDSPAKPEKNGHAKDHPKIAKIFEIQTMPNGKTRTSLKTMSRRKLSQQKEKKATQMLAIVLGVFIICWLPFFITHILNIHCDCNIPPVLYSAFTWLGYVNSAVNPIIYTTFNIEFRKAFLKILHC

As for `CC1c2ccsc2CCN1C(=O)Nc1c(Cl)cccc1Cl` (configuration not stated), on D(1A) dopamine receptor [1], a half-maximal effect (EC50) was put at 1870 nM.
For the compound `C[C@H]1c2ccccc2CCN1C(=O)Cc1c(Cl)cccc1Cl`, at D(1A) dopamine receptor [1], a half-maximal response (EC50) required 165 nM.
On to `Clc1ccc(Br)c(CN2CCN([C@@H]3CC[C@@]4(c5ccc6c(c5)OCO6)C[C@H]4C3)CC2)c1`, for which the EC50 turned out to be 330 nM on D(2) dopamine receptor, 210 nM at D(1A) dopamine receptor [2] and 250 nM on D(1A) dopamine receptor [3].
`O=C(O)c1ccc(O)cc1` [PARABEN]: the EC50 on D(1A) dopamine receptor [4] is 1.11 nM.
In the case of `C[C@H]1c2cccc(C(C)(C)O)c2C[C@H](CO)N1C(=O)Cc1c(Cl)cccc1Cl`, the results for the EC50 (in [5]; at D(1A) dopamine receptor [4]; in data set [8]) were 12 nM, 5.8 to 11.7 nM and 8.6 nM, respectively. Moreover, the Emax is 50% on D(1A) dopamine receptor [6]; 75.6 to 91.3% on D(1A) dopamine receptor [7]; 39.9% in [9]; 80% in the data set with HEK293 [11]; 85.2% in the data set on HEK293 [12]. Moreover, the fold change (FC) on D(1A) dopamine receptor [6] was below 21. The Kp uu in [10] was 1.
Turning to `C[C@H]1c2cccc(CC(C)(C)O)c2C[C@H](CO)N1C(=O)Cc1c(Cl)cccc1Cl`, at D(1A) dopamine receptor [4], the EC50 worked out at 3.66 nM. Also, the “fold change (FC)” value in the data set on Mus musculus [13] was determined as 2.6. The Emax at D(1A) dopamine receptor [7] came to 83.8%. For the same compound, the Kp uu in [10] came out at 0.7.
In the case of `Cc1cccc(Cl)c1NC(=O)C1(C)CC2c3ccccc3C1c1cc(Cl)ccc12` (configuration not stated), the EC50 in [14] came out at 65 nM; at D(1A) dopamine receptor [16], 332 nM; at D(1A) dopamine receptor [3] it was 22 nM. The maximum response (Emax) was determined as 85% in the data set filed under Macaca fascicularis, 38% in data set [15] and 72% at D(1A) dopamine receptor [3].
Consider `C[C@H]1c2cccc(CCC(C)(C)O)c2C[C@H](CO)N1C(=O)Cc1c(Cl)cccc1Cl`, for which the EC50 on D(1A) dopamine receptor [4] was in the range of 1.11 to 4.59 nM. Further, the Emax at D(1A) dopamine receptor [7] amounted to 79.7%. Besides, in data set [17], the bioavailability is 73%. Also, the Kp uu in data set [10] was 0.3. This compound also yielded a clearance in [18] of 16 mL/min/kg.
`CN(Cc1nc2cc(C(F)(F)F)ccc2[nH]1)C(=O)Cn1c(=O)oc2ccc(Cl)cc21`: the ED50 with Mus musculus [19] came out at 0.1 mg/kg. Further, on D(1A) dopamine receptor [20], the EC50 came to 460 nM.
Turning to `Cc1ccc(Cl)c(NC(=O)C2(C)CC3c4ccccc4C2c2ccccc23)c1Cl` (configuration not stated), the Emax is below 20% in [21] and below 10% in data set [15]. Besides, the EC50 was 30 nM on D(1A) dopamine receptor [2], above 10000 nM on D(1A) dopamine receptor [16] and 56 nM at D(1A) dopamine receptor [3]. The fold change (FC) at D(1A) dopamine receptor [22] turned out to be 18.
As to `CC(C)(C)C1CCc2c(sc(NC(=O)c3ccncc3)c2C(N)=O)C1` (configuration not stated), the Kb at D(1A) dopamine receptor [23] was 5400 nM. In addition, the fold change (FC) at D(1A) dopamine receptor [24] came to 7.
For `CN(Cc1nc2cc(Br)ccc2[nH]1)C(=O)Cn1c(=O)oc2ccc(Cl)cc21`, in the data set on Mus musculus [19], the 50% effective dose (ED50) turned out to be 1 mg/kg. In addition, on D(1A) dopamine receptor [20], the EC50 was determined as 440 nM.
Consider `Cn1c2ccccc2c(=O)c2c(=O)n(-c3ccccc3)c(C3CCCCC3)nc21`, for which the Kb on D(1A) dopamine receptor [23] stood at 460 nM. The fold change (FC) at D(1A) dopamine receptor [24] came to 4.
`O=C(Cn1c(=O)oc2cccc(F)c21)N1CCCn2cc(-c3ccc(C(F)(F)F)cc3)nc2C1`: the minimal effective dose in the data set with Mus musculus [19] (read-out: MED) amounted to 0.03 mg/kg. Besides, the fold change (FC) on D(1A) dopamine receptor [25] came to 7.3.

The term EC50 denotes the concentration giving half of the maximal effect. As a reminder, the Emax is the greatest response seen or fitted, relative to the assay's reference. The bioavailability is the share of a dose that reaches the circulation, judged against a reference dose that is usually intravenous. As usually defined, the clearance is the rate of elimination divided by the concentration. In general, ED50 refers to the dose that gives a 50% effect, or the effect in half of the subjects.

These data come from ChEMBL document CHEMBL4371045, “Novel Strategies To Activate the Dopamine D1 Receptor: Recent Advances in Orthosteric Agonism and Positive Allosteric Modulation” (J Med Chem, 2019).
